Reference: patent EP1428519A2, “5-Lipooxygenase inhibitors in deodorants and antiperspirants” (Henkel Kommanditgesellschaft auf Aktien, priority 2002, dated 2004)
Counter-ions that a name gives are not always drawn.

biological target: T1, 5-Lipoxigenase (Homo sapiens, UniProt P09917); test: 5-lipoxygenase inhibition in vitro (supernatant of differentiated leukaemia cells, leukotrienes quantified by HPLC); assay type: biochemical, menschlichen; details: 100 µg raw material as is per ml supernatant; 30 s preincubation at 37° C, 10 min reaction with arachidonic acid; activity without test substance = 100 %; solvent per substance (Ethanol, Wasser or DMSO)
T1 construct: durch Ultraschallbehandlung aufgeschlossen; Größere Zellbestandteile wurden bei 100 000 g abzentrifugiert, wobei 5-Lipoxigenase im Überstand verblieb; endogenous in cells; sonicated; 100 000 g supernatant
T1 sequence (P09917 1-674): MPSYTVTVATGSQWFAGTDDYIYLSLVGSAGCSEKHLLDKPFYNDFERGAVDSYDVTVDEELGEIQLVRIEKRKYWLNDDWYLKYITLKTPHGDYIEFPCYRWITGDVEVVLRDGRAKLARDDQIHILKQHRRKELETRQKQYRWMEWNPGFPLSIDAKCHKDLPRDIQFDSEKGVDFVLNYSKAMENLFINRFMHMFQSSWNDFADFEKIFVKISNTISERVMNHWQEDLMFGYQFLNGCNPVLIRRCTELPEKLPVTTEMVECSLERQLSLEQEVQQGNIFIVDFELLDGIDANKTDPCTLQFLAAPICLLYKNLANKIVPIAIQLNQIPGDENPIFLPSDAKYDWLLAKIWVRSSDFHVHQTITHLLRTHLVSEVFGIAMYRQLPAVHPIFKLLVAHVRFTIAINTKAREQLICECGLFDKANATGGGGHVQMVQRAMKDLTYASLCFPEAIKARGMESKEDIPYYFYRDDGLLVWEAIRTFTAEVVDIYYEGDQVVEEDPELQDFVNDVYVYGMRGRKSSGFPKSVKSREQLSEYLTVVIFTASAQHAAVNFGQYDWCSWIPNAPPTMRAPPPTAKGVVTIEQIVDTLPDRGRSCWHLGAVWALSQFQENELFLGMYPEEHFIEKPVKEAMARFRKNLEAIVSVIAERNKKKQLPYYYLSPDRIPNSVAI
Description: Die 5-Lipoxigenase wurde aus menschlichen Leukämie-Zelllinien durch Zugabe von Dimethylsulfoxid (DMSO), TGF-β1 (transforming growth factor β1) und Dihydroxyvitamin D3 differenziert und dabei zugleich die 5-Lipoxigenase induziert. Nach 4 Tagen im Differenzierungsmedium wurden die Zellen geerntet, in einem Glucose-haltigen PBS-Puffer aufgenommen und durch Ultraschallbehandlung aufgeschlossen. Größere Zellbestandteile wurden bei 100 000 g abzentrifugiert, wobei 5-Lipoxigenase im Überstand verblieb.
Die Bestimmung der 5-Lipoxigenase-Inhibitionswirkung erfolgte gemäß Werz et al., Naunyn-Schmiedeberg's Arch. Pharmacol., 1997, Vol. 456, 441 - 445.
Dem Überstand aus der 5-Lipoxigenase-Herstellung wurden Adenosintriphosphat (ATP) und die zu testenden Rohstoffe zugesetzt. Im vorliegenden Falle wurden 100 µg Rohstoff, so wie er ist, pro Milliliter Überstand eingesetzt. Als Lösemittel wurden je nach Substanz Wasser, Ethanol, DMSO oder Chloroform verwendet.
Die Ansätze wurden für 30 Sekunden bei 37° C vorinkubiert. Anschließend wurde die 5-Lipoxigenase-Reaktion durch Zusatz von Arachidonsäure gestartet. Nach 10 Minuten Reaktionszeit wurde die Reaktion durch Zugabe von Methanol gestoppt. Die durch die Einwirkung der 5-Lipoxigenase auf Arachidonsäure produzierten Leukotriene wurden mittels HPLC quantifiziert. Die Aktivität von 5-Lipoxigenase ohne Zugabe von Testsubstanz wurde zu 100 % gesetzt und die Aktivität der 5-Lipoxigenase mit Hemmstoff darauf bezogen. In Tabelle 1 ist die Hemmwirkung der einzelnen Testsubstanzen in % angegeben.

Compound | Hemmwirkung
CC(C)=CCCC(C)(O)C1CC=C(C)CC1 (stereo not drawn) [α-Bisabolol] | 90,3%
CC[C@H](CC[C@@H](C)[C@H]1CC[C@H]2[C@@H]3CC=C4C[C@@H](OS(=O)(=O)O)CC[C@]4(C)[C@H]3CC[C@]12C)C(C)C [Phytocohesine, Sodium Beta-Sitosteryl Sulfate] | 62,8%
O=C(O)CCCCC1CCSS1 (stereo not drawn) [α-Liponsäure, reference compound] | 40,4%
